These results are taken from US11324725B2, “Compositions and methods for the inhibition of pruritus” (The United States of America, as represented by the …, priority 2017, dated 2022).

The target in this assay is T1, hNpr1 (Homo sapiens, UniProt P16066).
T1 sequence (P16066 33-1061): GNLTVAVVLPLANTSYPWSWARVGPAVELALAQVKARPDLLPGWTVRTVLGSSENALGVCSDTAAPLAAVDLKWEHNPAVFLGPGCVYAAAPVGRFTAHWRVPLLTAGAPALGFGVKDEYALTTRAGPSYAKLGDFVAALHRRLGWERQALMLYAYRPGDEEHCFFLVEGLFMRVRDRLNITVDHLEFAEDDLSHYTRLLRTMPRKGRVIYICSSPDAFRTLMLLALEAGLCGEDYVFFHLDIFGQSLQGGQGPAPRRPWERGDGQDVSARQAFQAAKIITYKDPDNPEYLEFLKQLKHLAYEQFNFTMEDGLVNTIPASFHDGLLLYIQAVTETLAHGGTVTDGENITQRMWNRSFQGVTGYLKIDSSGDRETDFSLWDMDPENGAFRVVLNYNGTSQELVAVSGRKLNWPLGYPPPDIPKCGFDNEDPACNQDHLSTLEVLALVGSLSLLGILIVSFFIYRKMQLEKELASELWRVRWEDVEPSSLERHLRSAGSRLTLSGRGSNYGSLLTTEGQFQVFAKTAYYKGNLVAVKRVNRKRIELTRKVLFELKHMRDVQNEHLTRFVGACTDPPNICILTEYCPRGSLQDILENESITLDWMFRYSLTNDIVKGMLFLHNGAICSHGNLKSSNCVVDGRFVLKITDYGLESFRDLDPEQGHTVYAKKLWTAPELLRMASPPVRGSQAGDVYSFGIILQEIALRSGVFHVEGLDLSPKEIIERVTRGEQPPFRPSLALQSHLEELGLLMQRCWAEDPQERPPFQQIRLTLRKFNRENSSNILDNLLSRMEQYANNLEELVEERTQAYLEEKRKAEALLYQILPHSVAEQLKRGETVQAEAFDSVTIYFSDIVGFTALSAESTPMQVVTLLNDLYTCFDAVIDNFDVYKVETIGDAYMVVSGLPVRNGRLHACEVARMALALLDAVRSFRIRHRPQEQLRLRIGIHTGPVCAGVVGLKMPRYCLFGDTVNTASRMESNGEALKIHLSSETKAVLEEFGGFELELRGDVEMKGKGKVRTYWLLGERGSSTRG
The assay can be described thus: GloSensor assay in 96-well format, HEK-hNpr1-cGMP-sensor cells. It counts as cell-based. Further details: Reversibility of hNpr1 inhibition after washing: dose or concentration left out as unconfirmed. As to conditions: for Imax [%] (mean ± SEM), GloSensor 96-well format / IC50: 60 pM hNppa 5 minutes after compound; for IC50: read-out: IC50 [μM] (mean ± SEM), GloSensor 96-well format; for Ki: calculated with Cheng-Prusoff equation from Table 3, read-out: Ki hNpr1 GloSensor™ [μM] (mean ± SEM); for Effect on hNppa concentration-response at fixed antagonist concentration: 5 μM antagonist, increasing hNppa, GloSensor and membrane cyclase assays (FIGS. 5B-C); for Basal (unstimulated) hNpr1 activity: HEK-hNpr1-cGMP-sensor cells, no agonist. On the procedure:
Before the measurement (24 hours in advance), 3×10^4 cells were seeded into white 96-well plates (PerkinElmer, Waltham, Mass.), coated with 0.1% poly(D-lysine), and assays conducted as recommended by the manufacturer (Promega). Medium was aspirated and cells were loaded for two hours at room temperature with 2% GoSensor™ reagent diluted in CO2-independent media (ThermoFisher) supplemented with 2 mM L-glutamine and 10% FBS (assay medium). Luminescence was measured on a BioTek Synergy™ NEO (Winooski, Vt.) plate reader at room temperature. After a baseline measurement of 3-5 minutes, assay medium as a control or assay medium with agonist was manually added, and luminescence was measured for 30 minutes at ˜ 1/60 Hz. For compounds tested for Npr1 and Npr2 inhibition, the compounds were added after baseline measurements, and luminescence was read for 5 minutes before addition of agonist. Luminescence was then normalized to baseline measurements and plotted against the time. Ligand-induced changes of cGMP production were quantified by determining the area under the curve. To determine efficacy and potency of agonists, ligand-induced changes were normalized to medium only addition and plotted against the ligand concentration. […] To quantify […] of compounds, compound-induced changes of agonist-induced cGMP production were normalized to vehicle controls, plotted against compound concentration, and fit with a four-parameter logistic regression. Effects of A-71915 on basal mNpr1 activity were fitted with a bell-shaped regression (equation indicated below).
Additional screens of the fifteen candidates corroborated hNpr1 inhibition. In particular, HEK-hNpr1-cGMP-sensor cells were seeded in 96-wells and stimulated with 60 pM hNppa 5 minutes after addition of candidate compounds or A-71915 and luminescence was measured for 30 minutes. Inhibitors were titrated to calculate apparent potency (IC50) and efficacy (Imax) of inhibition of hNppa-induced cGMP production.

Entries after “also recorded” stand apart in the source; their conditions may differ.

As usually defined, the IC50 is the concentration at which inhibition is half-maximal. Usually Ki stands for a measure of affinity in units of concentration, obtained from inhibition or displacement. Regarding `COc1ccc(C2(C(=O)N3CCC4(CC3)c3nccn3-c3ccccc3CN4C)CC2)cc1` [JS-12, (1-(4-methoxyphenyl)cyclopropyl)(5-methyl-5,6-dihydrospiro[benzo[f]imidazo[1,2-a][1,4]diazepine-4,4′-piperidin]-1′-yl)methanone], the “Imax [%] (mean ± SEM), GloSensor 96-well format” value (“Imax [%] (mean ± SEM)” below) is reported as −96.0 ± 1.3%; the IC50 was 1.3 ± 0.002 µM; the inhibition constant (Ki) is 0.21 ± 0.0002 µM.

As to `CCC(CC)c1cc([C@H]2CN3CC[C@H]2C[C@@H]3CNS(=O)(=O)c2cccs2)nc(-c2ccncc2)n1` [JS-3, N-(((2R,4S,5R)-5-(6-(pentan-3-yl)-2-(pyridin-4-yl)pyrimidin-4-yl)quinuclidin-2-yl)methyl)thiophene-2-sulfonamide], the “Imax [%] (mean ± SEM)” value was −99.4 ± 0.6%; the IC50 amounted to 3.1 ± 0.6 µM; the Ki is 0.5 ± 0.102 µM.

With `COc1cc(CN2CCC(C)(NC(C)=O)CC2)cc(-c2ccncc2)c1` [JS-4, N-(1-(3-methoxy-5-(pyridin-4-yl)benzyl)-4-methylpiperidin-4-yl)acetamide], the “Imax [%] (mean ± SEM)” value is given as −95.5 ± 1.2%; the IC50 stood at 1.1 ± 0.01 µM; the Ki is 0.18 ± 0.002 µM.

Turning to `Cc1noc(C)c1-c1cc(-c2ccccc2Oc2ccccc2)cn2cncc12` [JS-5, 3,5-dimethyl-4-(6-(2-phenoxyphenyl)imidazo[1,5-a]pyridin-8-yl)isoxazole], the “Imax [%] (mean ± SEM)” value was −99.9 ± 0.1%; the IC50 came to 7.4 ± 0.3 µM; the “Effect on hNppa concentration-response at fixed antagonist concentration” value was “reduced maximal responses even at extremely high hNppa concentrations”; the “Basal (unstimulated) hNpr1 activity” value was “dose dependently inhibited”. For the same molecule, the inhibitory constant (Ki) is 1.18 ± 0.048 µM.

On to `Cc1nn2c(c1-c1ccccc1OCc1ccccc1)N(C(=O)Cc1ccc3c(c1)OCO3)CCC2` [JS-8, 2-(benzo[d][1,3]dioxol-5-yl)-1-(3-(2-(benzyloxy)phenyl)-2-methyl-6,7-dihydropyrazolo[1,5-a]pyrimidin-4(5H)-yl)ethan-1-one], for which the “Imax [%] (mean ± SEM)” value is −98.8 ± 0.7%; the IC50 was 1.2 ± 0.1 µM; the “Effect on hNppa concentration-response at fixed antagonist concentration” value is “reduced maximal responses even at extremely high hNppa concentrations”; the “Basal (unstimulated) hNpr1 activity” value was “dose dependently inhibited”. The Ki is 0.2 ± 0.013 µM. Further, the “Reversibility of hNpr1 inhibition after washing” value (5 minutes compound, 5-minute washing step, then hNppa) is reported as “a single washing step was sufficient to completely recover hNpr1 activity; also recorded: reversible”.

Turning to `CN(Cc1ccccc1)C(=O)c1cn2ccnc(-c3ccccc3)c2n1` [JS-14, N-benzyl-N-methyl-8-phenylimidazo[1,2-a]pyrazine-2-carboxamide], the IC50 came out at 3.1 ± 1.1 µM and the Ki was 0.5 ± 0.179 µM.

For the molecule `Cc1nn2c(c1-c1ccccc1OCc1ccccc1)N(C(=O)Cc1ccccn1)CCC2` [JS-9, 1-(3-(2-(benzyloxy)phenyl)-2-methyl-6,7-dihydropyrazolo[1,5-a]pyrimidin-4(5H)-yl)-2-(pyridin-2-yl)ethan-1-one], the “Imax [%] (mean ± SEM)” value is −93.4 ± 6.4%; the IC50 was 3.1 ± 1.4 µM; the Ki is 0.49 ± 0.215 µM.

For the molecule `N#Cc1ccccc1CN1CCCC(C(=O)NCc2ccccc2)CCNC(=O)CC1` (stereo not shown) [JS-13, N-benzyl-1-(2-cyanobenzyl)-4-oxo-1,5-diazacycloundecane-8-carboxamide], the “Imax [%] (mean ± SEM)” value is −96.1 ± 0.4%; the IC50 came out at 1.1 ± 0.1 µM; the Ki was 0.18 ± 0.011 µM.

On to `Cc1cc(CNC(=O)c2ccc3c(c2)n(CC2CC2)c(=O)n3C2CCCCC2)on1` [JS-11, 1-cyclohexyl-3-(cyclopropylmethyl)-N-((3-methylisoxazol-5-yl)methyl)-2-oxo-2,3-dihydro-1H-benzo[d]imidazole-5-carboxamide], for which the “Imax [%] (mean ± SEM)” value is given as −96.3 ± 1.3%; the IC50 came to 1.9 ± 0.8 µM; the “Basal (unstimulated) hNpr1 activity” value is “dose dependently inhibited”; the Ki is 0.3 ± 0.134 µM.

As to `O=C(NCc1cccnc1)c1cnc2[nH]nc(-c3ccccc3)c2n1` [JS-7, 3-phenyl-N-(pyridin-3-ylmethyl)-1H-pyrazolo[3,4-b]pyrazine-5-carboxamide], the half-inhibitory concentration (IC50) came out at 1.2 ± 0.5 µM and the Ki is 0.19 ± 0.085 µM.

Consider `Cc1nn2c(c1-c1ccccc1Oc1ccccc1)N(C(=O)Cc1ccc3c(c1)OCO3)CCC2` [JS-10, 2-(benzo[d][1,3]dioxol-5-yl)-1-(2-methyl-3-(2-phenoxyphenyl)-6,7-dihydropyrazolo[1,5-a]pyrimidin-4(5H)-yl)ethan-1-one], for which the “Imax [%] (mean ± SEM)” value is −98.3 ± 1.7%; the IC50 was determined as 6.7 ± 6.7 µM; the Ki is 1.07 ± 1.08 µM.

Regarding `COc1ccccc1-c1n[nH]c2ncc(C(=O)NCc3cccnc3)nc12` [JS-6, 3-(2-methoxyphenyl)-N-(pyridin-3-ylmethyl)-1H-pyrazolo[3,4-b]pyrazine-5-carboxamide], the “Imax [%] (mean ± SEM)” value is −94.2 ± 5.3%; the IC50 amounted to 1.9 ± 0.1 µM; the Ki is 0.31 ± 0.023 µM.
